Measured values: ChEMBL document CHEMBL3507680, “University of Dundee, Gates Library screen for HepG2 cell viability”

Test: Human HepG2 cell viability assay in 384 well format
Type: toxicity, cell-based
Parameters: dose 125 nL, time 70.5 hour; concentration not given beside the values
Settings: HepG2 cells, read-out: Inhibition

Point of comparison: `O=C(CCc1cc2n(n1)CCCNC2)N1CCC(N2CCOC2=O)CC1`, cytotoxicity at 70.5 h -3.48%. Against it:
- COc1ccc(CCN)cc1-c1ccc(S(C)(=O)=O)cc1 — lower, -8.83%
- CN(C)c1cnn(CC(=O)N2CCN(c3ccccc3)CC2)c(=O)c1 — lower, -5.83%
- CCc1cc(C(=O)N2CCCn3nc(CCC(=O)O)cc3C2)cs1 — lower, -8.44%
- O=S(=O)(NCCn1cc(C2CCOC2)nn1)c1ccc(Cl)cc1 (stereo unspecified) — higher, 17.5%
- COc1ccc(OC)c(C2CCN(C(=O)C3CCOCC3)C2)c1 (stereo unspecified) — lower, -6.78%
- Cc1cc(F)ccc1OC1(C(=O)O)CCN(Cc2c[nH]cn2)CC1 — lower, -4.85%
- CCC[C@H]1CN(Cc2ccc(N(C)C)nc2)C[C@@H]1NC(=O)CSC — lower, -6.28%
- COCCC(=O)N1CCCC2(CCC(=O)N(CCc3c[nH]cn3)C2)C1 (stereo unspecified) — lower, -5.35%
- CCOc1cccc(C(=O)N2C[C@H]3CC[C@@H]2CN(C(=O)C2CCC2)C3)c1 — higher, 23.1%
- CCOC(=O)CNC(=O)N1CCCC(CNC(=O)c2ccco2)C1 (stereo unspecified) — higher, -1.85%
- CCC(=O)Nc1cccc(OCC(=O)N(C)Cc2nc(C)c[nH]2)c1 — lower, -4.8%
- COc1ccc(C(=O)C2CCCN(CCc3ccccc3)C2)c(OC)c1 (stereo unspecified) — higher, 18.4%
- CS(=O)(=O)N1CCC(Oc2ccc(C(=O)NCC3CCC3)cc2Cl)CC1 — lower, -12.8%
- O=C(O)CSc1nnc(-c2cn[nH]c2)n1-c1ccccc1C(F)(F)F — lower, -3.6%
- CC[C@@H](NC(C)=O)C(=O)NCc1cccnc1Oc1ccccc1OC — higher, 8.31%
- COc1ccc(F)c(-c2nccn2CCN2CCCC2)c1 — higher, 33.7%
- Cc1ccnc(NCC2(N(C)C)CCOCC2)n1 — higher, -2.1%
- COc1cc(C)cc(C(C(=O)O)N2CCN(C3CCCC3)CC2)c1OC (stereo unspecified) — higher, -2.66%
- Cc1ccccc1N1CCN(C(=O)Cc2ccc3c(c2)OCO3)CC1=O — higher, -2.79%
- CC(C)(O)CCc1cccc(C(=O)N2CCC3(CCO3)CC2)c1 — higher, -1.91%
- O=C(N[C@@H]1CCN(Cc2ccc(F)cc2F)C[C@H]1O)c1cccnc1 — higher, 8.03%
- CCc1nc2c(c(N(C)Cc3nncn3CCOC)n1)CCNCC2 — lower, -8.26%
- Cn1cc(CNCC2(O)CCCN(Cc3ccc(F)c(F)c3)C2=O)cn1 (stereo unspecified) — lower, -3.67%
- CNCc1n[nH]c(=O)n1-c1ccccc1Oc1ccccc1 — higher, 1.39%
- CCS(=O)(=O)c1ncc(CN(C)CCc2ccccn2)n1CCOC — lower, -8.19%
- Cc1noc(C)c1CN(C)c1ncnc2onc(C)c12 — higher, 9.42%
- COC(=O)CC1CCN(C(=O)Nc2ccc(-c3ccn[nH]3)cc2)C1 (stereo unspecified) — higher, 1.65%
- CCC1CN(C(=O)c2csc3nc(-c4ccc(Cl)cc4)cn23)CCN1 (stereo unspecified) — lower, -12.3%
- Cc1c(CN2CC[C@@H](N3CCC(O)CC3)[C@H](O)C2)[nH]c2ccc(Cl)cc12 — higher, -0.941%
- COc1c(C)cnc(CN(C)C2CCOC3(CCOCC3)C2)c1C (stereo unspecified) — lower, -19.1%
- CC(=O)NCc1cc2n(n1)CCN(Cc1cccc(Cl)c1F)C2 — higher, 36.9%
- CNc1nc(C(=O)N2C[C@@H]3CCN(C)[C@@H]3C2)cs1 — higher, -3.23%
- CCn1c(C2CCCNC2)nn(Cc2ccc(C(=O)NC)o2)c1=O (stereo unspecified) — higher, -3.04%
- Cc1nc(CC(=O)N2CCCC[C@H](N(C)C)C2)cs1 — lower, -7.83%
- Cc1nccn1-c1ccc(N2CCC(NC(C)CC(C)C)CC2)cc1 (stereo unspecified) — higher, 10.6%
- CCn1nc(C)c(CN(CCOC)C(=O)c2cnc(C)nc2O)c1C — lower, -6.8%
- CN(C)c1cncc(-c2ccnc3c2ccn3C)n1 — higher, -0.942%
- Cc1ccc(OC2(C(=O)O)CCN(C/C=C/c3ccco3)CC2)cc1 — lower, -7.6%
- COc1ccc(C(=O)O)cc1-c1cccc2c1CCNC2 — lower, -11.6%
- COc1ccc2[nH]nc(CN3CCC(C(C)N(C)C)CC3)c2c1 (stereo unspecified) — higher, 1.23%
- Cc1ncnc(NCC(C)N(C)c2ccccc2)c1C (stereo unspecified) — higher, 29.1%
- CCC[C@@H]1CN(Cc2ccc3c(c2)OCCO3)C[C@H]1C(=O)O — higher, -0.0956%
- CC(C)NS(=O)(=O)c1cc(C(=O)O)cc(-n2cc3c(n2)CCC3)c1 — higher, -0.272%
- O=C1CCCN1CCc1noc(-c2ccc(Cl)cc2)n1 — lower, -10.6%
- O=C(N[C@H]1COC[C@@H]1N1CCCC1)c1csc(Cc2ccccc2)n1 — lower, -14.1%
- Cc1cc(C)n(C2CN(C(=O)Cn3c(C)cc(=O)c4ccccc43)C2)n1 — lower, -5.3%
- O=C1CCC2(CCCN(c3ncc(Cl)cc3F)C2)CN1CC1CC1 (stereo unspecified) — higher, -1.6%
- CCSc1ccc(C(=O)N2CC[C@](C)(O)[C@H](C)C2)s1 — lower, -10.1%
- C[C@@H]1CN(C(=O)c2cc(Cn3ccc4ccccc43)[nH]n2)C[C@H](C)O1 — higher, 26.1%
- COc1ccccc1C1CNC(=O)c2nc(-c3c(C)n[nH]c3C)[nH]c2C1 (stereo unspecified) — lower, -4.74%
- CN(C)S(=O)(=O)NCc1nc(-c2cccc(F)c2)c(-c2ccccn2)[nH]1 — higher, -0.435%
- CC(=O)N1CCC(C(=O)N2CCOC(CC3CCCCC3)C2)CC1 (stereo unspecified) — higher, 24.3%
- CC(O)c1cn(C2CCN(C(=O)C3(C)CCCCC3)CC2)nn1 (stereo unspecified) — higher, 14.9%
- COc1ccc(CCN)cc1-c1ccc(O)cc1 — lower, -13.9%
- CC(C)(O)CCc1cccc(C(=O)NCc2nccs2)c1 — higher, 3.29%
- Nc1ncc(C(=O)N2CCCC(N)CC2)c(-c2ccccc2)n1 (stereo unspecified) — higher, 7.49%
- CCOC(=O)C1(Cc2ccc(Cl)cc2)CCN(Cc2ncc[nH]2)CC1 — lower, -10.4%
- Oc1cccc(CN2C[C@H]3CC[C@@H]2CN(Cc2cccnc2)C3)c1 — higher, 3.01%
- CCN(Cc1ccc(C(C)=O)cc1)CC1CCOCC1 — higher, 20.6%
- Cc1nc(N2CCCC2)nc(N2CCC(O)(C(=O)O)CC2)c1C — higher, 23.8%
- CC(C)=CCN1CCC2(CC1)CC(=O)N(Cc1cc(F)cc(F)c1)C2 — higher, 2.51%
- Cc1cc(N2CCCC(O)(CN(C)C)C2)c2cc3c(cc2n1)OCO3 (stereo unspecified) — higher, 0.76%
- CC(=O)N[C@@H]1CN(Cc2ccccc2C(=O)O)C[C@H]1C(C)C — higher, 0.633%
- Cc1nc(O)cc(C2CCN(C(=O)c3ccsc3)CC2)n1 — lower, -5.48%
- CCc1ncc(CNCc2cccnc2N(C)C)cn1 — lower, -12.1%
- CC[C@@H](c1ccccc1)n1c(C2CC2)n[nH]c1=O — lower, -13%
- CCN(CC1CCOCC1)C(=O)CCNC(=O)c1ccccc1F — lower, -23.5%
- CN1CCCN(C(=O)c2cnc(C(C)(C)C)nc2O)CC1 — higher, 0.369%
- CC(C1CCN(Cc2c(Cl)cncc2Cl)CC1)N1CCOCC1 (stereo unspecified) — lower, -5.73%
- CCCc1cc(NCc2noc(COC)n2)n2nccc2n1 — lower, -4.21%
- Cc1cc(N2CCC3(CCCN(CCO)C3=O)C2)nc2cc(Cl)ccc12 (stereo unspecified) — lower, -19.8%
- O=C(c1coc(COc2ccccc2F)n1)N1CCCO1 — lower, -6.81%
- Cc1ocnc1C(=O)N1CC[C@@]2(O)CCN(C(=O)N3CCCC3)C[C@H]2C1 — lower, -4.39%
- CC(C)[C@@H]1CN(S(=O)(=O)c2cccc(C(=O)O)c2)C[C@H]1N(C)C — higher, 17.4%
- CN1CC2(CCN(C(=O)c3ccc4nccnc4c3)CC2)CC1=O — lower, -4.39%
- Fc1ccc(OC2CCN(CCn3cncn3)CC2)cc1 — lower, -9.54%
- CN(C)c1nc2c(c(=O)[nH]1)CCN(C(=O)c1c[nH]c(=O)c(Cl)c1)C2 — higher, -0.451%
- CCn1c(C)nnc1SCCNC(=O)CC1CCc2ccccc21 (stereo unspecified) — lower, -18.5%
- c1ccc2c(CC3CN(Cc4nccs4)CCO3)cccc2c1 (stereo unspecified) — higher, -0.398%
- O=C1CC(c2ccc3ccccc3n2)c2c(n[nH]c2C2CCC2)N1 (stereo unspecified) — higher, 19.5%
- CCCc1cc(N2CCC(NC3CCS(=O)(=O)C3)CC2)nc(C)n1 (stereo unspecified) — lower, -4.65%
- c1cncc(CN(CCCn2ccnc2)CC2CCOC2)c1 (stereo unspecified) — higher, -1.27%
- CC(C)n1cnnc1CN(C)C(=O)c1cc(COc2ccccc2)[nH]n1 — higher, 2.63%
- CCn1nc(C)c(NC(=O)CN2CCN(C(C)=O)CC2)c1C — lower, -10.9%
- COCc1ncn(Cc2nc(-c3ccco3)oc2C)n1 — higher, 6.06%
- CCCN1CC2(CCN(C)CC2)CC1C(=O)NCCn1ccc(C)n1 (stereo unspecified) — higher, -1.37%
- Nc1nc(Cn2ccnc2-c2cc(CN3CCCC3)cs2)cs1 — higher, 3.17%
- CCN(CC)S(=O)(=O)c1ccc(NC(=O)C(C)(C)C)cc1 — lower, -4.91%
- CCc1ccc2nc(NCCOCCO)cc(C)c2c1 — higher, -2.24%
- CCN(CC)C(CNCc1ccc(OC)c(F)c1)c1ccco1 (stereo unspecified) — higher, 54.9%
- CCN(Cc1cnc(NCc2ccccc2)nc1)C1CCS(=O)(=O)C1 (stereo unspecified) — lower, -7.52%
- COc1ccc([C@@H]2CN(C(=O)CCc3cc(Cl)no3)C[C@H]2N(C)C)cc1 — higher, 4%
- CCC(C)Sc1ncc(-c2c(C#N)c(N)nc3c2COCC3)cn1 (stereo unspecified) — higher, 6.03%
- COCc1noc(CN2CCC3(CC2)[C@H](O)C[C@@H]3OC)n1 — lower, -5.38%
- CN(Cc1cc(-c2ccncc2)no1)Cc1nccn1C — higher, 10.3%
- CN1CCN(C2CCOCC2)CC12CCC(=O)N(CC1CC1)CC2 (stereo unspecified) — lower, -6.33%
- O=C(c1ccon1)N1CCCCC1c1nc2cc(F)ccc2[nH]1 (stereo unspecified) — lower, -5.01%
- Cc1nn(CCO)cc1CN1CCC(C(C)N2CCCC2)CC1 (stereo unspecified) — lower, -3.99%
- CN1CC2(CCN(C(=O)c3ccc4c(=O)n(C)cnc4c3)C2)OC1=O (stereo unspecified) — higher, 8.11%
- Cc1ccc(OC2CCN(CCn3cncn3)CC2)cc1 — lower, -10.7%
- O=C1CN(CC[C@@H](O)c2ccccc2)CCN1c1ccccc1Cl — lower, -7.1%
- COCCN(Cc1cnn(C)c1)C(=O)C1CCC(=O)N(C2CCCC2)C1 (stereo unspecified) — lower, -15%
- Cc1nn(C)c(C)c1C(C(=O)O)N1CC=C(c2ccccc2)CC1 (stereo unspecified) — higher, 10.9%
- COCCN1CCN(c2ncnc3nc(C)cc(C)c23)CC1 — lower, -7.61%
- CSc1ccc(CN(C(=O)c2cc(C)[nH]c(=O)c2)C2CC2)cc1 — higher, 0.291%
- CCSCCNc1nc(-c2ccccn2)nc2c1c(C)nn2C — higher, 2.98%
- CCOC(=O)CC(NC(=O)c1cn(Cc2ccccc2F)nn1)C(C)C (stereo unspecified) — lower, -9.35%
- CC(=O)c1cn(CC(=O)N2CCCC(O)(CO)C2)c2ccccc12 (stereo unspecified) — higher, 28%
- COCCN(C/C=C/c1ccccc1)Cc1nccs1 — higher, 2.82%
- Cc1ccc(C(=O)N2CCC3(CCC(=O)N(CC(N)=O)C3)CC2)cc1 — lower, -8.05%
